Here are results for 19 molecules from PubChem BioAssay (NCI).

Some test systems named below: COLO 205 colon; HS 578T breast; IGROV1 ovarian; K-562 leukemia; M14 melanoma; MOLT-4 leukemia; OVCAR-8 ovarian; SF-295 CNS; SW-620 colon.
What all share (test): inhibition of tumour cell growth, NCI panel, 48 h

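Growth conditions: 96-well plates. Treatment: test compound, 48 hours, 5 concentrations. Analysis: linear interpolation between bracketing concentrations; unreached endpoints set to highest concentration. The concentration for 50% growth inhibition is given as GI50. The concentration for full growth arrest is given as TGI.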 Bounds are passed on as bounds.

With `N#Cc1c(N)nc(N2CCOCC2)c(C#N)c1-c1c(Cl)cccc1Cl`, the GI50 in the experiment on COLO 205 colon was 7.14 µM; in the experiment on HS 578T breast it was 5.07 µM; with IGROV1 ovarian it was 1.98 µM; in the experiment with K-562 leukemia, 3.3 µM; with M14 melanoma, 2.47 µM; in the experiment with MOLT-4 leukemia, 5.1 µM. In addition, the GI50 with OVCAR-8 ovarian was 14.2 µM; with SF-295 CNS, 4.4 µM; with SW-620 colon, 5.16 µM. Besides, the TGI was 22.8 µM with COLO 205 colon; 63.9 µM in the experiment with HS 578T breast; 5.08 µM in the experiment on IGROV1 ovarian; 11.7 µM in the experiment with K-562 leukemia; 7.42 µM in the experiment on M14 melanoma; 86.5 µM with MOLT-4 leukemia. Also, the values for the TGI with OVCAR-8 ovarian, in the experiment on SF-295 CNS and in the experiment on SW-620 colon were 63.2 µM, 43.2 µM and over 100 µM, respectively.

Regarding `Cc1[nH]c2cc([N+](=O)[O-])ccc2c1[N+](=O)[O-]`, the TGI with COLO 205 colon was 33 µM; in the experiment with IGROV1 ovarian it was over 100 µM; in the experiment with K-562 leukemia, over 100 µM; in the experiment with M14 melanoma it was 44 µM; in the experiment with MOLT-4 leukemia, 71.4 µM; with OVCAR-8 ovarian, 79.8 µM. Also, the TGI with SF-295 CNS was found to be 48.8 µM; with SW-620 colon, 97.9 µM.

In the case of `CCc1c(C)c2cc(-n3c(-c4ccc(OC)cc4)csc3=N)c(O)c(C)c2oc1=O`, the GI50 was 1.94 µM in the experiment on COLO 205 colon; 2.1 µM with HS 578T breast; 1.08 µM with IGROV1 ovarian; 1.41 µM with M14 melanoma; 1.54 µM with MOLT-4 leukemia; 2.24 µM in the experiment on OVCAR-8 ovarian. In addition, the GI50 with SF-295 CNS is 1.52 µM; in the experiment with SW-620 colon it was 1.32 µM. Moreover, the TGI is 4.88 µM with COLO 205 colon; over 100 µM in the experiment with HS 578T breast; 5.25 µM in the experiment on IGROV1 ovarian; 6.59 µM in the experiment with M14 melanoma; over 100 µM in the experiment on MOLT-4 leukemia; 8.28 µM in the experiment on OVCAR-8 ovarian. For the same molecule, the TGI in the experiment with SF-295 CNS is 10.3 µM; in the experiment on SW-620 colon it was 3.28 µM.

Consider `CN1CCN(c2nc(N)c(Br)c(Cl)n2)CC1`, for which the TGI in the experiment with COLO 205 colon, in the experiment on IGROV1 ovarian, with K-562 leukemia, in the experiment on M14 melanoma, in the experiment on MOLT-4 leukemia and in the experiment on OVCAR-8 ovarian was over 100 µM in each case. For the same molecule, the TGI in the experiment with SF-295 CNS and with SW-620 colon was over 100 µM throughout.

In the case of `COC(=O)[C@@]12C3=NO[C@]1(C(=O)OC)C(O[Si](C)(C)C(C)(C)C)[C@@H](OC(C)=O)[C@@H](OC(C)=O)[C@@H]2[C@@H](OCc1ccccc1)CC3` (stereo not given in full), the TGI in the experiment with COLO 205 colon, with IGROV1 ovarian, in the experiment on K-562 leukemia, in the experiment on M14 melanoma, in the experiment with MOLT-4 leukemia and in the experiment on OVCAR-8 ovarian was over 100 µM in each case. Moreover, the TGI with SF-295 CNS and in the experiment with SW-620 colon was over 100 µM throughout.

Turning to `S=C(SSC(=S)N1CCCCC1)N1CCCCC1`, the GI50 in the experiment with COLO 205 colon is 11.8 µM; with HS 578T breast it was 21 µM; with K-562 leukemia, 22.5 µM; in the experiment on M14 melanoma it was 8.34 µM; in the experiment with MOLT-4 leukemia it was 17.2 µM; in the experiment on OVCAR-8 ovarian, 16.2 µM. The GI50 is 40.1 µM with SF-295 CNS and 13.4 µM in the experiment with SW-620 colon. Also, the TGI in the experiment on COLO 205 colon was 24.1 µM; in the experiment with HS 578T breast, over 100 µM; in the experiment on K-562 leukemia, over 100 µM; in the experiment with M14 melanoma it was 22.9 µM; with MOLT-4 leukemia, 49.5 µM; in the experiment with OVCAR-8 ovarian it was 60.9 µM. The results for the TGI in the experiment on SF-295 CNS and in the experiment with SW-620 colon were over 100 µM and 26.9 µM, respectively.

For the molecule `CC1=C2C=CC(=O)C[C@@]2(C)CCC1`, the TGI in the experiment with COLO 205 colon, in the experiment with IGROV1 ovarian, with K-562 leukemia, with M14 melanoma, with MOLT-4 leukemia and in the experiment with OVCAR-8 ovarian was over 100 µM in each case. In addition, the TGI with SF-295 CNS and with SW-620 colon was over 100 µM throughout.

For `CCOC(=O)C1C(=O)CC(=O)C2CCCCC21` (stereo not given), the TGI in the experiment on COLO 205 colon, in the experiment with IGROV1 ovarian, with K-562 leukemia, in the experiment with M14 melanoma, in the experiment with MOLT-4 leukemia and in the experiment with OVCAR-8 ovarian was over 100 µM throughout. The TGI in the experiment on SF-295 CNS and in the experiment with SW-620 colon was over 100 µM in each case.

For `CC(=O)[CH-]C(=O)c1ccccc1.CC(=O)[CH-]C(=O)c1ccccc1.CC(=O)[CH-]C(=O)c1ccccc1.[Ga+3]`, the GI50 with COLO 205 colon is 17.7 µM; in the experiment on IGROV1 ovarian, 18.6 µM; with K-562 leukemia it was 16.9 µM; in the experiment with M14 melanoma, 15.5 µM; in the experiment on MOLT-4 leukemia, 9.64 µM; with OVCAR-8 ovarian it was 14.8 µM. The GI50 in the experiment on SF-295 CNS was 23.3 µM; in the experiment with SW-620 colon, 23 µM. Moreover, the TGI stood at 32.3 µM in the experiment on COLO 205 colon; 46.4 µM in the experiment on IGROV1 ovarian; 51.5 µM in the experiment with K-562 leukemia; 30.1 µM with M14 melanoma; 30.4 µM with MOLT-4 leukemia; 29.2 µM in the experiment with OVCAR-8 ovarian. The TGI amounted to 47.5 µM in the experiment with SF-295 CNS and 55.8 µM in the experiment on SW-620 colon.

Turning to `O=C(N/C(=C\c1ccc(/C=C(\NC(=O)c2ccccc2)c2nc3c(O)nc(S)nc3[nH]2)cc1)c1nc2c(O)nc(S)nc2[nH]1)c1ccccc1`, the TGI in the experiment on COLO 205 colon, in the experiment on IGROV1 ovarian, with K-562 leukemia, in the experiment with M14 melanoma, in the experiment on MOLT-4 leukemia and with OVCAR-8 ovarian was over 100 µM in each case. Moreover, the TGI with SF-295 CNS and in the experiment with SW-620 colon was over 100 µM in each case.

With `O=C1C(Cl)=C(NCCCN(CCCNC2=C(Cl)C(=O)c3ccccc3C2=O)C2=C(Cl)C(=O)c3ccccc3C2=O)C(=O)c2ccccc21`, the GI50 in the experiment with HS 578T breast was 2.88 µM; with IGROV1 ovarian it was 1.76 µM; in the experiment with OVCAR-8 ovarian it was 3 µM; in the experiment on SF-295 CNS it was 3.07 µM; in the experiment with SW-620 colon it was 2.21 µM. Besides, the TGI was over 100 µM in the experiment on HS 578T breast; 6.13 µM with IGROV1 ovarian; 10.5 µM with OVCAR-8 ovarian; 14.7 µM with SF-295 CNS; 4.9 µM in the experiment with SW-620 colon.

Regarding `N#Cc1ccc(C2SCc3nc4ccccc4n32)cc1` (stereo not given), the TGI in the experiment on COLO 205 colon, in the experiment on IGROV1 ovarian, in the experiment on K-562 leukemia, in the experiment with M14 melanoma, in the experiment with MOLT-4 leukemia and with OVCAR-8 ovarian was over 100 µM each time. Also, the TGI with SF-295 CNS and in the experiment on SW-620 colon was over 100 µM in each case.

As for `CC(=O)C1C(=O)C(=O)N(CCN2C(=O)C(=O)C(C(C)=O)C2=O)C1=O` (stereo not given), the TGI with COLO 205 colon, in the experiment on IGROV1 ovarian, in the experiment on K-562 leukemia, with M14 melanoma, in the experiment on OVCAR-8 ovarian and in the experiment on SF-295 CNS was over 100 µM throughout. Besides, the TGI in the experiment with SW-620 colon is over 100 µM.

For the molecule `CC(=O)CC(=O)Nc1ccccc1C(F)(F)F`, the TGI in the experiment with COLO 205 colon, in the experiment on IGROV1 ovarian, with K-562 leukemia, with M14 melanoma, with MOLT-4 leukemia and with OVCAR-8 ovarian was over 100 µM throughout. Also, the TGI in the experiment on SW-620 colon is over 100 µM.

In the case of `CCN(CC)C(=S)SS(C)(=O)=O`, the TGI in the experiment with COLO 205 colon was 29.7 µM; in the experiment on IGROV1 ovarian, over 100 µM; in the experiment on K-562 leukemia, 47.8 µM; with M14 melanoma, 32.1 µM; with MOLT-4 leukemia it was 42.8 µM; in the experiment on OVCAR-8 ovarian it was 39.4 µM. Moreover, the TGI with SF-295 CNS was 98 µM; in the experiment on SW-620 colon it was 35.2 µM.

As to `CCN(CC)c1ccc(C2N3CCCCC3[C@@H]3c4[nH]c5ccccc5c4CCN23)cc1` (stereo not given in full), the TGI in the experiment on COLO 205 colon was 93.2 µM; in the experiment with IGROV1 ovarian, over 100 µM; in the experiment with K-562 leukemia, 61.3 µM; in the experiment with M14 melanoma, 64.8 µM; in the experiment on MOLT-4 leukemia it was over 100 µM; with OVCAR-8 ovarian, over 100 µM. In addition, the TGI in the experiment with SF-295 CNS and in the experiment with SW-620 colon was over 100 µM each time.

`CCOCCOCCOCCOCCOCCOCCOCCOCCOCCO` (tested in a mixture with another compound): the GI50 in the experiment on COLO 205 colon is 1.28 µM; in the experiment on HS 578T breast, 1.81 µM; in the experiment on IGROV1 ovarian, 3.19 µM; in the experiment on M14 melanoma, 2.02 µM; in the experiment with MOLT-4 leukemia, 0.628 µM; in the experiment with OVCAR-8 ovarian it was 0.871 µM. Besides, the GI50 is 0.869 µM in the experiment with SF-295 CNS and 1.56 µM with SW-620 colon. Moreover, the TGI with COLO 205 colon was determined as 4.23 µM; in the experiment on HS 578T breast, 9.59 µM; in the experiment on IGROV1 ovarian, 15.8 µM; in the experiment with M14 melanoma, 7.08 µM; in the experiment on MOLT-4 leukemia, 1.69 µM; in the experiment with OVCAR-8 ovarian, 4.36 µM. Moreover, the TGI with SF-295 CNS was found to be 4.12 µM; with SW-620 colon, 8.17 µM.

`O=C(Oc1c(Cl)cc(Cl)cc1Cl)c1ccccc1Nc1ccnc(C(F)(F)F)c1`: the GI50 in the experiment with COLO 205 colon is 6.24 µM; with IGROV1 ovarian, over 100 µM; in the experiment on K-562 leukemia, 2.42 µM; in the experiment on M14 melanoma, 2.13 µM; in the experiment on OVCAR-8 ovarian, 3.04 µM; with SF-295 CNS it was 4.16 µM. In the experiment with SW-620 colon, the GI50 was 4.59 µM. Moreover, the TGI in the experiment with COLO 205 colon is over 100 µM; in the experiment with IGROV1 ovarian, over 100 µM; in the experiment on K-562 leukemia, over 100 µM; in the experiment with M14 melanoma, 4.99 µM; in the experiment with OVCAR-8 ovarian it was 49.9 µM; in the experiment with SF-295 CNS, over 100 µM. Further, the TGI in the experiment with SW-620 colon was over 100 µM.

As to `O=C1C=CC(=O)c2c1nc(CBr)[nH]c2=O`, the TGI with COLO 205 colon, in the experiment on HS 578T breast, in the experiment on IGROV1 ovarian, with K-562 leukemia, in the experiment on M14 melanoma and with MOLT-4 leukemia was over 100 µM throughout. Moreover, the TGI with OVCAR-8 ovarian and in the experiment with SF-295 CNS was over 100 µM in each case.
